Paper PMC7237647, “Synthesis, in vitro and in vivo evaluation of ^11C-O-methylated arylpiperazines as potential serotonin 1A (5-HT1A) receptor antagonist radiotracers” (EJNMMI Radiopharmacy and Chemistry, 2020)

Experiments:
DOR, KOR, MOR = assay: NIMH-PDSP radioligand binding assay, DOR, KOR, MOR
Alpha1B = target: T1, Alpha1B (Homo sapiens, UniProt P35368); assay: NIMH-PDSP radioligand binding assay, Alpha1B
T1 construct: NIMH-PDSP

Sigma1R = target: T2, Sigma1R (Homo sapiens, UniProt Q99720); assay: NIMH-PDSP radioligand binding assay, Sigma1R
T2 construct: NIMH-PDSP
Description: (§1) . Cross selectivity for biogenic amines, neurotransmitter receptors, and transporters were determined by radioligand binding assays through NIMH- PDSP using validated and established protocols ([NIMH-PDSP Assay Protocol Book Version III, March 2018]).

PBR = target: T3, PBR (Rattus norvegicus, UniProt P16257); assay: NIMH-PDSP radioligand binding assay, PBR
T3 construct: NIMH-PDSP
Description: as §1

D2R = target: T4, D2R (Homo sapiens, UniProt P14416); assay: NIMH-PDSP radioligand binding assay, D2R
T4 construct: NIMH-PDSP

D1, D5 = assay: NIMH-PDSP radioligand binding assay, D1, D5
Adenosine receptors = assay: NIMH-PDSP radioligand binding assay, Adenosine receptors
5-HT2A [1] = target: T5, 5-HT2A (Homo sapiens, UniProt P28223); assay: NIMH-PDSP radioligand binding assay, 5-HT2A
T5 construct: NIMH-PDSP

5-HT4 = target: T6, 5-HT4 (Homo sapiens, UniProt Q13639); assay: NIMH-PDSP radioligand binding assay, 5-HT4
T6 construct: NIMH-PDSP
Description: as §1

NET = NET (Homo sapiens, UniProt P23975); assay: NIMH-PDSP radioligand binding assay, NET
Description: as §1

5-HT1B = target: T7, 5-HT1B (Homo sapiens, UniProt P28222); assay: NIMH-PDSP radioligand binding assay, 5-HT1B
T7 construct: NIMH-PDSP
Description: as §1

Muscarinic receptors = assay: NIMH-PDSP radioligand binding assay, Muscarinic receptors
5-HT2A [2] = target: T5, 5-HT2A; set-up: method as in ref Fiorino et al. [2012]; Fiorino et al. [2016]; Fiorino et al. [2017]; settings: previous preliminary pharmacological screening; ref Fiorino et al. [2012]; Fiorino et al. [2016]; Fiorino et al. [2017]; cited from earlier work
NOP = target: T8, NOP (Homo sapiens, UniProt P41146); assay: NIMH-PDSP radioligand binding assay, NOP
T8 construct: NIMH-PDSP
Description: as §1

SERT = SERT (Homo sapiens, UniProt P31645); assay: NIMH-PDSP radioligand binding assay, SERT
Description: as §1

5-HT1A receptor = target: T9, 5-HT1A receptor (Homo sapiens, UniProt P08908); assay: Competition binding with [^3H]WAY100635 at 5-HT1A receptors (NIMH-PDSP); settings: for Ki: competition with [^3H]WAY100635, 12 concentrations (10 μM to 1 pM), triplicate, cells expressing 5-HT1A receptor; for Binding affinity ratios of 5-HT1A and α1-adrenergic receptors: in vitro Ki ratio
T9 sequence (P08908 1-422): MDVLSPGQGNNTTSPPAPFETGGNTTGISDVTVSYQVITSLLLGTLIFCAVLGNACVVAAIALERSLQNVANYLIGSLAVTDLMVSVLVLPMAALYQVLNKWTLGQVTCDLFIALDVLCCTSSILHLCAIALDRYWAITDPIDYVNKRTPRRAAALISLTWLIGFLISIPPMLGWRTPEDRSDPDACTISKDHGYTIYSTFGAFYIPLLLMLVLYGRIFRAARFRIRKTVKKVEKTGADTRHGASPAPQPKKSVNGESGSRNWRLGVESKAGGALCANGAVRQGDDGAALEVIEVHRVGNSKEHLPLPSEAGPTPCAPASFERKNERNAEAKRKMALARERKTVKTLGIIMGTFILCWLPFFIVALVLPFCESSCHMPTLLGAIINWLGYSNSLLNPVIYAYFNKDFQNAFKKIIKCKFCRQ

Alpha2B = target: T10, Alpha2B (Homo sapiens, UniProt P18089); assay: NIMH-PDSP radioligand binding assay, Alpha2B
T10 construct: NIMH-PDSP

D4R = target: T11, D4R (Homo sapiens, UniProt P21917); assay: NIMH-PDSP radioligand binding assay, D4R
T11 construct: NIMH-PDSP
T11 sequence (P21917 1-419): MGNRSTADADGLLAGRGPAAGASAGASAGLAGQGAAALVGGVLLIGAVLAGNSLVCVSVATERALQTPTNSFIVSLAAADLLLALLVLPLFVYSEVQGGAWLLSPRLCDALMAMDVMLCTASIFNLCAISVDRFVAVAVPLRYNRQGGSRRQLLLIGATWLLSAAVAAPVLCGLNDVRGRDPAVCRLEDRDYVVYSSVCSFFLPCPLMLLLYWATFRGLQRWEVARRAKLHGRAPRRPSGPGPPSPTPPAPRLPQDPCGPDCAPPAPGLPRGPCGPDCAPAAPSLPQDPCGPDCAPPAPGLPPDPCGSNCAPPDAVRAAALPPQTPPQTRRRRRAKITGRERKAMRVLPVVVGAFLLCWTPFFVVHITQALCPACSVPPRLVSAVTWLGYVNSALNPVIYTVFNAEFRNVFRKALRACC
Description: as §1

Alpha1D = target: T12, Alpha1D (Homo sapiens, UniProt P25100); assay: NIMH-PDSP radioligand binding assay, Alpha1D
T12 construct: NIMH-PDSP

Alpha1A = target: T13, Alpha1A (Homo sapiens, UniProt P35348); assay: NIMH-PDSP radioligand binding assay, Alpha1A; settings: text b29 calls it α1-adrenergic receptors
T13 construct: NIMH-PDSP

D3R = target: T14, D3R (Homo sapiens, UniProt P35462); assay: NIMH-PDSP radioligand binding assay, D3R
T14 construct: NIMH-PDSP
Description: as §1

5-HT2C = target: T15, 5-HT2C (Homo sapiens, UniProt P28335); assay: NIMH-PDSP radioligand binding assay, 5-HT2C
T15 construct: NIMH-PDSP
T15 sequence (P28335 33-458): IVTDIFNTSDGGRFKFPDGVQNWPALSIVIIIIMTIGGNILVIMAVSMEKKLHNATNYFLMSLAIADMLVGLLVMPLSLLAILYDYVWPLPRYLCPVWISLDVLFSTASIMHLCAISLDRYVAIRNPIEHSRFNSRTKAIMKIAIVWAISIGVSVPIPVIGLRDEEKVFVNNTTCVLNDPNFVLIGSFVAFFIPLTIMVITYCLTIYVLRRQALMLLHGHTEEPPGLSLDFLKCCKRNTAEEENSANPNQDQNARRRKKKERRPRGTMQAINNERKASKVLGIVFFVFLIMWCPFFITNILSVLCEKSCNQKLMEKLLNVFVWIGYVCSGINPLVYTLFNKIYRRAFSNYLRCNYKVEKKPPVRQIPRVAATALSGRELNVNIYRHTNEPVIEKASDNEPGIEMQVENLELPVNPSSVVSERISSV

Alpha 2A = target: T16, Alpha 2A (Homo sapiens, UniProt P08913); assay: NIMH-PDSP radioligand binding assay, Alpha 2A
T16 construct: NIMH-PDSP

5-HT7R = target: T17, 5-HT7R (Homo sapiens, UniProt P34969); assay: NIMH-PDSP radioligand binding assay, 5-HT7R
T17 construct: NIMH-PDSP

DAT = DAT (Homo sapiens, UniProt Q01959); assay: NIMH-PDSP radioligand binding assay, DAT
Description: as §1

5-HT5a = target: T18, 5-HT5a (Homo sapiens, UniProt P47898); assay: NIMH-PDSP radioligand binding assay, 5-HT5a
T18 construct: NIMH-PDSP
Description: as §1

T5 sequence (P28223 whole entry, species assumed): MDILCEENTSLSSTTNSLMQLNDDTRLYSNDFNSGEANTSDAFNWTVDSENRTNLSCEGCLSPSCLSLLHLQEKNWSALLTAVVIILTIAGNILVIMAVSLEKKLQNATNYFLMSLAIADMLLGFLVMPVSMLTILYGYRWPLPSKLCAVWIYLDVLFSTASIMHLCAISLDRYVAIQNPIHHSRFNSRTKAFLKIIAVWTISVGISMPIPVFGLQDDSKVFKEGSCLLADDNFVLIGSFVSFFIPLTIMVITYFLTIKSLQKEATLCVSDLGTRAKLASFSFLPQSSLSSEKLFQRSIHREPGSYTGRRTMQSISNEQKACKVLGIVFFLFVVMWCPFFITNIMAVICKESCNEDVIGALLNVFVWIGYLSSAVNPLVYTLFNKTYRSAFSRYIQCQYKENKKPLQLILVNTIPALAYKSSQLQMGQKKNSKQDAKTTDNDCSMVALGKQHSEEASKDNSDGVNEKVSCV
T12 sequence (P25100 whole entry): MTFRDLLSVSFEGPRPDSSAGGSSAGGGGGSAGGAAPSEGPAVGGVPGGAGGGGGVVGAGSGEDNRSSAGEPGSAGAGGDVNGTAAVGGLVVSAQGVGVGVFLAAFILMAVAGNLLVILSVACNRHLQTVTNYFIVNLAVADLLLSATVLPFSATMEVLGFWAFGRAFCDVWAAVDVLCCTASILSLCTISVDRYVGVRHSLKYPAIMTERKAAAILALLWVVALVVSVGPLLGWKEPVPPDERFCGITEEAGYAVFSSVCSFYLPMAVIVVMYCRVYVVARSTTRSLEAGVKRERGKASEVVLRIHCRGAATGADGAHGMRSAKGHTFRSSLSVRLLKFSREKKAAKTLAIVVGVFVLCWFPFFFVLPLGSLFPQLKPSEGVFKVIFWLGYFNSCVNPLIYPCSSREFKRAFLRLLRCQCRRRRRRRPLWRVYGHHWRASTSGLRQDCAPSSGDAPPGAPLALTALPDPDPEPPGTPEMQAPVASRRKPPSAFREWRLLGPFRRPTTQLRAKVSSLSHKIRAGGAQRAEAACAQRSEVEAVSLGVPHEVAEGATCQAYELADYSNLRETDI
T13 sequence (P35348 whole entry): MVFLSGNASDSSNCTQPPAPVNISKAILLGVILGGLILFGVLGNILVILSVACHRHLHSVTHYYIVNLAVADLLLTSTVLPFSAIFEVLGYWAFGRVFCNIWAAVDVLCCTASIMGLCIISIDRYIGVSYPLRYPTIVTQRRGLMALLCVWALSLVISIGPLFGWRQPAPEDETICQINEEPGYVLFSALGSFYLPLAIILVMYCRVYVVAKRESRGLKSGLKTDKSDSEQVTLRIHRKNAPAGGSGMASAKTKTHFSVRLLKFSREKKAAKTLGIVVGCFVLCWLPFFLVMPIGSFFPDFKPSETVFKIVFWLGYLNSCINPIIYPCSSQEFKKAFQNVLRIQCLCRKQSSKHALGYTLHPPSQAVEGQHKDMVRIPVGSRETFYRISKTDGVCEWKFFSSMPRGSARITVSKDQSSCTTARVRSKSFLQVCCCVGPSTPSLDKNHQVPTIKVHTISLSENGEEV
T10 sequence (P18089 whole entry): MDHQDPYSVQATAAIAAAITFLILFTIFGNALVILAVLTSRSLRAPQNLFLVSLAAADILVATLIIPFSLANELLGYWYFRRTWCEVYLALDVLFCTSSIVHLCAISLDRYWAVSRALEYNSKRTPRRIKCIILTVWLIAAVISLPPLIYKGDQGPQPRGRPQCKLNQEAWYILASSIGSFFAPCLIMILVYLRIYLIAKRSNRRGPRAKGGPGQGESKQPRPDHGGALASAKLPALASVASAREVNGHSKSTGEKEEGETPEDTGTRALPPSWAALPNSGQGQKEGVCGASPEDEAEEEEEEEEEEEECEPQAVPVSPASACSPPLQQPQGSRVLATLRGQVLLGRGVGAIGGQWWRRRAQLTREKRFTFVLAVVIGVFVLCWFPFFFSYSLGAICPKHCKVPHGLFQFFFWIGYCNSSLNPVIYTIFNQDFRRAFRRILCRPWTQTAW
Chain of NET (P23975 whole entry): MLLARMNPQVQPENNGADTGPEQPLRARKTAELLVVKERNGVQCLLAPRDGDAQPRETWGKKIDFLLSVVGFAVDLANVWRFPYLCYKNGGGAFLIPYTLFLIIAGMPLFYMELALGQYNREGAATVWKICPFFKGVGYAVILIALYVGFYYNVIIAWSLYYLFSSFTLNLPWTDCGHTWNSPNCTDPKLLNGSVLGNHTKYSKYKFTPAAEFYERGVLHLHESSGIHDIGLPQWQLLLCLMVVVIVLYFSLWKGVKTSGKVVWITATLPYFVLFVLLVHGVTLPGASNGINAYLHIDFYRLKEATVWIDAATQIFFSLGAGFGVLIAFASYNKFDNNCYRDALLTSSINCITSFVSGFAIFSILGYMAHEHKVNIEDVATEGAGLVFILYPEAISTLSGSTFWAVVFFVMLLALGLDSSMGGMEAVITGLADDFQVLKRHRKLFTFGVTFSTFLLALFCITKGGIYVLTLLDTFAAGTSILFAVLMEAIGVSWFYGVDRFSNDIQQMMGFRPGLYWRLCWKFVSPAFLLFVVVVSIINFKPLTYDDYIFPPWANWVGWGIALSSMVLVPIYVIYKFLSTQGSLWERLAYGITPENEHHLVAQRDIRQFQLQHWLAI
T17 sequence (P34969 whole entry): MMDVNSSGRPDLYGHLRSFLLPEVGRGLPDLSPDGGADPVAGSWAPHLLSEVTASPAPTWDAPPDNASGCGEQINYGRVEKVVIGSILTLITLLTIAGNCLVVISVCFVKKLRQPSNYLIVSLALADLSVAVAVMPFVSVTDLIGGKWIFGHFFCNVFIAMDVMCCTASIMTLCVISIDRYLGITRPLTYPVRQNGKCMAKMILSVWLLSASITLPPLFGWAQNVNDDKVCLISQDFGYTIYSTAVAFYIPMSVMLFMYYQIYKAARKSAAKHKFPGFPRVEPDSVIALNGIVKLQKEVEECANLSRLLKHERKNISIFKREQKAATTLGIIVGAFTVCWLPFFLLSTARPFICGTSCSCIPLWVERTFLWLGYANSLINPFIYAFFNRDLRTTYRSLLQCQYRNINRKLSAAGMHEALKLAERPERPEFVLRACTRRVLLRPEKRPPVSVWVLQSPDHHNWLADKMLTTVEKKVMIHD
T7 sequence (P28222 whole entry, species assumed): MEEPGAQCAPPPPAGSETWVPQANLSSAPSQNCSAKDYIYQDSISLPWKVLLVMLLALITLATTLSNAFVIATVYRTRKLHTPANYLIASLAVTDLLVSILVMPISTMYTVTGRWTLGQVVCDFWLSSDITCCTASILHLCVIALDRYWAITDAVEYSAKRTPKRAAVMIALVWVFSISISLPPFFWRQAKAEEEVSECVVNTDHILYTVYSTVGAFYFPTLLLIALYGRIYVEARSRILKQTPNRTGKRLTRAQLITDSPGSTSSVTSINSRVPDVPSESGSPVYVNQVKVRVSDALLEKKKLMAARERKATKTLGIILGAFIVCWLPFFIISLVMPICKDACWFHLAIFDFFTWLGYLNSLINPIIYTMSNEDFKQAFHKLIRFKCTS
T16 sequence (P08913 whole entry): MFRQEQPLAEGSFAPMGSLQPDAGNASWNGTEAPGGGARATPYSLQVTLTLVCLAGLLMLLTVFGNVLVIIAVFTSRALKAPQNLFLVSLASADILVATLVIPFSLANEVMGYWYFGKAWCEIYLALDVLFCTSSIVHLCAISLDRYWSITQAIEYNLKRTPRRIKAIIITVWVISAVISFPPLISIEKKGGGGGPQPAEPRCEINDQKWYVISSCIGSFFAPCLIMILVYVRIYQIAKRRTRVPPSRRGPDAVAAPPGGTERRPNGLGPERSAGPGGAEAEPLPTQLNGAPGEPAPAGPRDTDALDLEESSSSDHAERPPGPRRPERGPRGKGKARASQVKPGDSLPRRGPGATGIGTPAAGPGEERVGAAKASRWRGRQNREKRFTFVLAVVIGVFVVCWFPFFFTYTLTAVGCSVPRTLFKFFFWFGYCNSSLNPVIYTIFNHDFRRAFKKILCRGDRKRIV
T4 sequence (P14416 whole entry): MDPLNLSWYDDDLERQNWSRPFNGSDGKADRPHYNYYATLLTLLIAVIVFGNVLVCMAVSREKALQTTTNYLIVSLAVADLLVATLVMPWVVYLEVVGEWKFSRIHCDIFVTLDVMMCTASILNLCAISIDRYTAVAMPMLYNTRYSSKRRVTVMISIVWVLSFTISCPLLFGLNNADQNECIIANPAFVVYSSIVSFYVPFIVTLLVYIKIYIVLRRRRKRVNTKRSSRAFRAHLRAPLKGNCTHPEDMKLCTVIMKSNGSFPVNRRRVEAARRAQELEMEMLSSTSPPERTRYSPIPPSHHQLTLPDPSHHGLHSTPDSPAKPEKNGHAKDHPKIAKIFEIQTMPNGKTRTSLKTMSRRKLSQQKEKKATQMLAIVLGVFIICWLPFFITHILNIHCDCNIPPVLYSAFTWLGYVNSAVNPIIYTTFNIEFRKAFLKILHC
T2 sequence (Q99720 whole entry, species assumed): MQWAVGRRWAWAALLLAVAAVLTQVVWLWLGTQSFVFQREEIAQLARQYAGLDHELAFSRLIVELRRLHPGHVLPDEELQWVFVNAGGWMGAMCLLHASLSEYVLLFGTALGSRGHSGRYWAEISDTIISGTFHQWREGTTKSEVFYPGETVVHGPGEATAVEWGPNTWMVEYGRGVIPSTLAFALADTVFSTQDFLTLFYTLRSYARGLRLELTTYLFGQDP
T6 sequence (Q13639 whole entry, species assumed): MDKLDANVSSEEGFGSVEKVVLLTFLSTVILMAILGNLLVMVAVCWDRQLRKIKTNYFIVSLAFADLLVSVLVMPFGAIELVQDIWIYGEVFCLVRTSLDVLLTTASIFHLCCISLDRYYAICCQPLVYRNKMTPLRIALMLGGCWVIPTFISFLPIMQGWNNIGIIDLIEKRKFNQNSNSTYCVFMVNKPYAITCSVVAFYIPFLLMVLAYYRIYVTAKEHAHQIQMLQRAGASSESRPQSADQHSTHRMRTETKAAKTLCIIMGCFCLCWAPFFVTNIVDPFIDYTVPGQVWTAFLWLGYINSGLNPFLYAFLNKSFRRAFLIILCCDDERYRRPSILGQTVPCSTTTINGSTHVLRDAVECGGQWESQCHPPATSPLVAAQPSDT

SMILES | Ki (DOR, KOR, MOR) | Ki (Alpha1B) | Ki (Sigma1R) | Ki (PBR) | Ki (D2R) | Ki (D1, D5) | Ki (Adenosine receptors) | Ki (5-HT2A [1]) | Ki (5-HT4) | Ki (NET) | Ki (5-HT1B) | Ki (Muscarinic receptors) | affinity to 5-HT2A (5-HT2A [2]) | Ki (NOP) | Ki (SERT) | Ki (5-HT1A receptor) | Binding affinity ratios of 5-HT1A and α1-adrenergic receptors (5-HT1A receptor) | Ki (Alpha2B) | Ki (D4R) | Ki (Alpha1D) | other results
COc1ccccc1N1CCN(CCNC(=O)c2ccccn2)CC1 [Compound 2] | > 10 µM | 254 nM | > 10000 nM | > 10 µM | > 10000 nM | > 10 µM | > 10 µM | > 10 µM | > 10 µM | > 10 µM | > 10 µM | > 10 µM | high affinities | > 10 µM | > 10 µM | 7.7 nM | ~ 6 | > 10000 nM | 88 nM | 53 nM | Ki (Alpha1A): 46 nM; Ki (D3R): 2550 nM; Ki (5-HT2C): > 10 µM; Ki (Alpha 2A): > 10000 nM; Ki (5-HT7R): 830 nM; Ki (DAT): > 10 µM; Ki (5-HT5a): > 10 µM
COc1ccccc1N1CCN(CCCN/C(=N\C#N)c2ccccn2)CC1 [Compound 1] | > 10 µM | 1080 nM | 520 nM | > 10 µM | 777 nM | > 10 µM | > 10 µM | > 10 µM | > 10 µM | > 10 µM | > 10 µM | > 10 µM | high affinities | > 10 µM | > 10 µM | 22 nM | ~ 6 | 670 nM | 137 nM | 213 nM | Ki (Alpha1A): 129 nM; Ki (D3R): 369 nM; Ki (5-HT2C): > 10 µM; Ki (Alpha 2A): 453 nM; Ki (5-HT7R): 76 nM; Ki (DAT): > 10 µM; Ki (5-HT5a): > 10 µM
